Source: ChEMBL document CHEMBL3045484, “Molecular modeling and synthesis of ZINC02765569 derivatives as protein tyrosine phosphatase 1B inhibitors: lead optimization study” (Med Chem Res, 2013)

Key:
[1] = molecular target: T1, Tyrosine-protein phosphatase non-receptor type 1 (Homo sapiens) (UniProt P18031); test: Inhibition of Homo sapiens (human) recombinant PTP1B assessed as decrease in free phosphate release at 10 uM by malachite staining relative to control
T1 sequence (whole entry): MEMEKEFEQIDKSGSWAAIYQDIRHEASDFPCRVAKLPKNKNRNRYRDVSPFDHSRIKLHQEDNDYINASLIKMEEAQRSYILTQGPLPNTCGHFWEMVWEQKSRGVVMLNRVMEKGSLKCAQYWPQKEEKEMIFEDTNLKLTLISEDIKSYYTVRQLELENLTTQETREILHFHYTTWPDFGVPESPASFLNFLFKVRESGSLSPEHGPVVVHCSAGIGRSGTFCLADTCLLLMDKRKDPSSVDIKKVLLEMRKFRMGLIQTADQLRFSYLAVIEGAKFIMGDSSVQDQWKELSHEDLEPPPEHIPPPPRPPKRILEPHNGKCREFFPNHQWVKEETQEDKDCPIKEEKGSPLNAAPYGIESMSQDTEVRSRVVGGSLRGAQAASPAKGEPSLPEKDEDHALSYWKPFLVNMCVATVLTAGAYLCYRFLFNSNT

[2] = molecular target: T2, Tyrosine-protein phosphatase non-receptor type 1 (Rattus norvegicus) (UniProt P20417); test: Inhibition of PTP1B in Rattus norvegicus (rat) L6 cells assessed as increase in 2-deoxy-D-[U-14C]-glucose uptake at 50 uM after 18 hr relative to control; assay type: cell-based
T2 sequence (whole entry): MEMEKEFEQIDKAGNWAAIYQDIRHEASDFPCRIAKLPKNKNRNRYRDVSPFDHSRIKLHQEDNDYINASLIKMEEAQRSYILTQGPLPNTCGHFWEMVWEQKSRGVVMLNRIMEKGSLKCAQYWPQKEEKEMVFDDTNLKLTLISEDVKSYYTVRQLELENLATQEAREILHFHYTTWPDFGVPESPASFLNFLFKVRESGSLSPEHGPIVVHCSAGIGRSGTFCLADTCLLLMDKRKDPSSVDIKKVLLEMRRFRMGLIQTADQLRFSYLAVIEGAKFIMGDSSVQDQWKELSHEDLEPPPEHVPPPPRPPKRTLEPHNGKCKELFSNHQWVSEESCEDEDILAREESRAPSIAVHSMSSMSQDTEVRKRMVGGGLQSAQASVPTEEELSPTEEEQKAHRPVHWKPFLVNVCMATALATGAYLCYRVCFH

Compound	inhibition [1] [%]	inhibition [2] [%]
O=C(CSc1nc2c([N+](=O)[O-])cccc2[nH]1)Nc1cc(C(=O)O)ccc1Cl	36.6	37.6
O=C(CSc1nc2ccccc2s1)Nc1ccc(C(=O)O)cc1	66.4	39.6
O=C(CSc1nc2ccccc2s1)Nc1cccc(C(=O)O)c1	24.2	59.2
O=C(CSc1nc2ccccc2s1)Nc1cc(C(=O)O)ccc1O	53.9	29.2

Further lines, results first:

inhibition [1] [%]	inhibition [2] [%]	Compound
23.2	58.6	O=C(CSc1nc2ccccc2[nH]1)Nc1cc(C(=O)O)ccc1O
18.7	22.5	O=C(CSc1nc2ccccc2[nH]1)Nc1ccc(C(=O)O)cc1
35.8	28.7	O=C(CSc1nc2ccccc2[nH]1)Nc1cc(C(=O)O)ccc1Cl
56.2	28.7	O=C(CSc1nc2ccccc2s1)Nc1cc(C(=O)O)ccc1Cl
20.9	31.4	Cc1cccc2[nH]c(SCC(=O)Nc3cc(C(=O)O)ccc3Cl)nc12
62.7	26.6	COc1cccc2[nH]c(SCC(=O)Nc3cc(C(=O)O)ccc3Cl)nc12
